Assay [1] addresses T1, OGA (Homo sapiens, UniProt O60502).
T1 construct: endogenous in cells; host or cells: HEK293 cells inducible for P301L mutant human Tau (isoform 2N4R)
T1 sequence (O60502 1-916): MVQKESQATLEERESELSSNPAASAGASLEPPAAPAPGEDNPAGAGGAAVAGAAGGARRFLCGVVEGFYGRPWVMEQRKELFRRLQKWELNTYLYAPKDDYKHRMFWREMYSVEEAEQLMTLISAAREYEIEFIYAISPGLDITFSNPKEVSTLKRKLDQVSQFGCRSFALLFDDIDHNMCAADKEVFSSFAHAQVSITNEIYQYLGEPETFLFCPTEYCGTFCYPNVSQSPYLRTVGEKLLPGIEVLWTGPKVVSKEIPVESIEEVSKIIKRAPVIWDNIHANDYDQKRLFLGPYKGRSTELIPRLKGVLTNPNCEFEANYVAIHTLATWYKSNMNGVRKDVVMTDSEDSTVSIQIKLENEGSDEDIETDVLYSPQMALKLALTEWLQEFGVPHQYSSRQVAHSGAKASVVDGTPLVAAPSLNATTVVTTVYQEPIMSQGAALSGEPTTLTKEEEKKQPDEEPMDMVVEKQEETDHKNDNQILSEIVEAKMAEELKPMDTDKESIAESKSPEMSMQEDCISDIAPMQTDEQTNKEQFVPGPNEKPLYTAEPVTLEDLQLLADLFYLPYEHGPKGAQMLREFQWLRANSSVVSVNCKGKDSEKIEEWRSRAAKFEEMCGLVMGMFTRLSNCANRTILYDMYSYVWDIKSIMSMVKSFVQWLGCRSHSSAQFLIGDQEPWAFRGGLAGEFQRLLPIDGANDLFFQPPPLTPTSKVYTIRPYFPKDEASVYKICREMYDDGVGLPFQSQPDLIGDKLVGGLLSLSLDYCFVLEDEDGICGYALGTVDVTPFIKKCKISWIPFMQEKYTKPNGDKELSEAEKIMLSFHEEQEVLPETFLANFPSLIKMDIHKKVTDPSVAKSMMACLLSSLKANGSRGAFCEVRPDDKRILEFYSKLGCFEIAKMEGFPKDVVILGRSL
Nature of the assay: OGA cellular assay (ICC detection of O-GlcNAcylated proteins in HEK293 cells inducible for P301L mutant human Tau). It counts as cell-based. The conditions noted are these: 6 hours incubation; for Emax: HEK293, HEK293 cells inducible for P301L mutant human Tau, maximum = Thiamet G 200 uM; for EC50: HEK293 cells inducible for P301L mutant human Tau, read-out: Cellular hOGA, pEC50 (converted). The protocol: HEK293 cells inducible for P301L mutant human Tau (isoform 2N4R) were established at Janssen. Thiamet-G was used for both plate validation (high control) and as reference compound (reference EC50 assay validation). OGA inhibition is evaluated through the immunocytochemical (ICC) detection of O-GlcNAcylated proteins by the use of a monoclonal antibody (CTD110.6; Cell Signaling, #9875) detecting O-GlcNAcylated residues as previously described (Dorfmueller et al. 2010 Chemistry & biology, 17:1250). Inhibition of OGA will result in an increase of O-GlcNAcylated protein levels resulting in an increased signal in the experiment. Cell nuclei are stained with Hoechst to give a cell culture quality control and a rough estimate of immediate compounds toxicity, if any. ICC pictures are imaged with a Perkin Elmer Opera Phenix plate microscope and quantified with the provided software Perkin Elmer Harmony 4.1.
Cells were propagated in DMEM high Glucose (Sigma, #D5796) following standard procedures. 2 days before the cell assay cells are split, counted and seeded in Poly-D-Lysine (PDL) coated 96-wells (Greiner, #655946) plate at a cell density of 12,000 cells per cm^2 (4,000 cells per well) in 100 μl of Assay Medium (Low Glucose medium is used to reduce basal levels of GlcNAcylation) (Park et al. 2014 The Journal of biological chemistry 289:13519). At the day of compound test medium from assay plates was removed and replenished with 90 μl of fresh Assay Medium. 10 μl of compounds at a 10 fold final concentration were added to the wells. Plates were centrifuged shortly before incubation in the cell incubator for 6 hours. DMSO concentration was set to 0.2%. Medium is discarded by applying vacuum. For staining of cells medium was removed and cells washed once with 100 μl D-PBS (Sigma, #D8537). From next step onwards unless other stated assay volume was always 50 μl and incubation was performed without agitation and at room temperature. Cells were fixed in 50 μl of a 4% paraformaldehyde (PFA, Alpha aesar, #043368) PBS solution for 15 minutes at room temperature. […] Before analysis samples were washed 2 times manually for 5 minutes in ICC base buffer.
Imaging is performed using Perkin Elmer Phenix Opera using a water 20×objective and recording 9 fields per well. Intensity readout at 488 nm is used as a measure of O-GlcNAcylation level of total proteins in wells. To assess potential toxicity of compounds nuclei were counted using the Hoechst staining. IC50-values are calculated using parametric non-linear regression model fitting. As a maximum inhibition Thiamet G at a 200 uM concentration is present on each plate. In addition, a concentration response of Thiamet G is calculated on each plate.

Assay [2] deals with T2, recombinant human Meningioma Expressed Antigen 5 (MGEA5), also referred to as O-GcNAcase (OGA) (Homo sapiens, UniProt O60502).
T2 construct: Full length OGA enzyme was purchased at OnGene (cat #TP322411); purchased OnGene (so in the source)
T2 sequence (O60502 1-916): T1 sequence (O60502 1-916)
The assay is described as follows: OGA biochemical assay (inhibition of FM-GlcNAc hydrolysis, fluorescence). The conditions noted are these: FM-GlcNAc substrate; for Emax: read-out: Enzymatic Emax (%); for IC50: read-out: Enzymatic hOGA, pIC50 (converted). The text has this: The assay is based on the inhibition of the hydrolysis of fluorescein mono-β-D-N-Acetyl-Glucosamine (FM-GlcNAc) (Mariappa et al. 2015, Biochem J 470:255) by the recombinant human Meningioma Expressed Antigen 5 (MGEA5), also referred to as O-GcNAcase (OGA). The hydrolysis FM-GlcNAc (Marker Gene technologies, cat #M1485) results in the formation of B-D-N-glucosamineacetate and fluorescein. The fluorescence of the latter can be measured at excitation wavelength 485 nm and emission wavelength 538 nm. An increase in enzyme activity results in an increase in fluorescence signal. Full length OGA enzyme was purchased at OnGene (cat #TP322411). The enzyme was stored in 25 mM Tris.HCl, pH 7.3, 100 mM glycine, 10% glycerol at −20° C. Thiamet G and GlcNAcStatin were tested as reference compounds (Yuzwa et al. 2008 Nature Chemical Biology 4:483; Yuzwa et al. 2012 Nature Chemical Biology 8:393). The assay was performed in 200 mM Citrate/phosphate buffer supplemented with 0.005% Tween-20. 35.6 g Na2HPO4 2H2O (Sigma, #C0759) were dissolved in 1 L water to obtain a 200 mM solution. 19.2 g citric acid (Merck, #1.06580) was dissolved in 1 L water to obtain a 100 mM solution. pH of the sodiumphosphate solution was adjusted with the citric acid solution to 7.2. The buffer to stop the reaction consists of a 500 mM Carbonate buffer, pH 11.0. 734 mg FM-GlcNAc were dissolved in 5.48 mL DMSO to obtain a 250 mM solution and was stored at −20° C. OGA was used at a 2 nM concentration and FM-GlcNAc at a 100 uM final concentration. Dilutions were prepared in assay buffer.
50 nl of a compound dissolved in DMSO was dispensed on Black Proxiplate TM 384 Plus Assay plates (Perkin Elmer, #6008269) and 3 μl fl-OGA enzyme mix added subsequently. Plates were pre-incubated for 60 min at room temperature and then 2 μl FM-GlcNAc substrate mix added. […] Plates were briefly centrifuged for 1 min at 1000 rpm and incubate at room temperature for 6 h. To stop the reaction 5 μl STOP buffer were added and plates centrifuge again 1 min at 1000 rpm. Fluorescence was quantified in the Thermo Scientific Fluoroskan Ascent or the PerkinElmer EnVision with excitation wavelength 485 nm and emission wavelength 538 nm.
For analysis a best-fit curve is fitted by a minimum sum of squares method. From this an IC50 value and Hill coefficient was obtained. High control (no inhibitor) and low control (saturating concentrations of standard inhibitor) were used to define the minimum and maximum values.

Bounds are passed on as bounds.

A word on the Emax: it is the maximal effect, on the per cent scale that the assay sets. Regarding `Cc1cc(C[C@H]2CCCN(C(C)c3cc(C4CC4)[nH]n3)C2)cc(C)n1` (mixture of isomers) [Product 21], in assay [1], the Emax stood at 59% and the EC50 is 0.468 µM. Also, in assay [2], the maximum response (Emax) worked out at 101% and the IC50 is 0.0245 µM.
Turning to `CCOc1cnc(C(C)N2CCC[C@H](Cc3cc(C)nc(C)c3)C2)o1` (mixture of isomers) [Product 30], in assay [1], the Emax worked out at 60% and the EC50 was 0.49 µM. For the same compound, in assay [2], the Emax is 101% and the IC50 is 0.0102 µM.
The corresponding values for `CCC(=O)Nc1cncc(C(C)N2CCC[C@H](Cc3cc(C)nc(C)c3)C2)c1` (mixture of isomers) [Product 38] are 3%, over 1 µM, 99% and 0.0708 µM.
The matching figures for `CNC(=O)c1cncc(C(C)N2CCC[C@H](Cc3cc(C)nc(C)c3)C2)c1` (mixture of isomers) [Product 40]: 72%, 0.407 µM, 101% and 0.0115 µM.
Take `COc1cncc(C(C)N2CCC[C@H](Cc3cc(C)nc(C)c3)C2)c1` (mixture of isomers) [Product 43]: in assay [1], the Emax was found to be 53% and the EC50 was 0.933 µM. Besides, in assay [2], the Emax worked out at 101% and the IC50 was 0.038 µM.
For `COc1cccc(C(C)N2CCCC(c3cc(C)nc(C)c3)C2)n1` (stereo not shown) [Product 73], in assay [2], the Emax stood at 96% and the IC50 is 0.741 µM.
The matching figures for `COc1cc(C2CCCN(C(C)c3cc(NC(C)=O)[nH]n3)C2)cc(C)n1` (stereo not shown) [Product 75]: 95% and 0.562 µM.
`COc1cc(OC2CCCN(C(C)c3nc(OC)ccc3F)C2)cc(C)n1` (stereo not shown) [Product 81]: in assay [2], the Emax amounted to 99% and the IC50 is 0.562 µM.
For the compound `CC(=O)Nc1cc(C(C)N2CCCC(CNc3cc(C)nc(C)c3)C2)[nH]n1` (stereo not shown) [Product 83], in assay [2], the maximal effect (Emax) amounted to 103% and the IC50 is 0.0603 µM.
With `CC(=O)Nc1cc(C(C)N2CCCC(CNc3cc(C)nc(C)c3)C2)[nH]n1` (stereo not shown) [Product 87], the IC50 in assay [2] is 0.0288 µM.
As to `COc1cccc([C@@H](C)N2CCC[C@H](CNc3cc(C)nc(C(F)(F)F)c3)C2)n1` [Product 92], in assay [2], the “Enzymatic Emax (%)” value was found to be 74% and the “Enzymatic hOGA; pIC50” value turned out to be 5.31.
Regarding `COc1cccc([C@H](C)N2CCC[C@H](CNc3cc(C)nc(C(F)(F)F)c3)C2)n1` [Product 93], in assay [2], the “Enzymatic Emax (%)” value turned out to be 29% and the “Enzymatic hOGA; pIC50” value was under 5.
On to `COc1cccc([C@@H](C)N2CCC[C@@H](CNc3cc(C)nc(C(F)(F)F)c3)C2)n1` [Product 94], for which, in assay [2], the “Enzymatic Emax (%)” value is listed as 72% and the “Enzymatic hOGA; pIC50” value is listed as 5.24.
`CC(=O)Nc1cc(C(C)N2CC[C@@H](Cc3cc(C)nc(C)c3)C2)n[nH]1` (stereo partly shown) [Product 97]: in assay [2], the Emax was 94% and the IC50 is 0.575 µM.
For the compound `CC(=O)Nc1cc(C(C)N2CC[C@@H](Cc3cc(C)nc(C)c3)C2)n[nH]1` (stereo partly shown) [Product 104], in assay [2], the “Enzymatic Emax (%)” value stood at 82% and the IC50 was 2.82 µM.
With `COc1ccc(F)c([C@H](C)N2CC[C@H](Cc3ncc(F)cc3F)C2)n1` [Product 109], in assay [2], the Emax is 60% and the IC50 is 7.59 µM.
For the compound `CC(=O)Nc1cc(C(C)N2CC[C@H](Cc3ncc(C)nc3C)C2)n[nH]1` (stereo partly shown) [Product 110], in assay [2], the Emax was determined as 92% and the IC50 is 0.813 µM.
The matching figures for `COc1ccc(F)c(C(C)N2CC[C@H](Cc3ncc(C)nc3C)C2)n1` (stereo partly shown) [Product 113]: 74% and 3.89 µM.
On to `CC(=O)Nc1cc(CN2CCCC(COc3cc(C)nc(C)c3)C2)n[nH]1` (stereo not shown) [Product 119], for which, in assay [2], the Emax was determined as 92% and the IC50 was 1.23 µM.
The matching figures for `CC(=O)Nc1nc(CN2CCC[C@H](Cc3cc(C)nc(C)c3)C2)c[nH]1` [Product 135]: 98% and 0.49 µM.
The matching figures for `CC(=O)Nc1cc(C(C)N2CCCC(Oc3cc(C)nc(C(F)(F)F)c3)C2)n[nH]1` (stereo not shown) [Product 138]: 81% and 2.45 µM.
Consider `CC(=O)Nc1ncc(CN2CCC[C@H](Cc3cc(C)nc(C)c3)C2)n1C` [Product 159], for which the IC50 in assay [2] is over 10 µM.
Turning to `COc1ccc(C)c(CN2CCC[C@H](Cc3cc(C)nc(C)c3)C2)n1` [Product 160], in assay [2], the Emax was determined as 24% and the IC50 was over 10 µM.
The matching figures for `CCOc1cc(CN2CCC[C@H](Cc3cc(C)nc(C)c3)C2)n(C)n1` [Product 161]: 52% and over 10 µM.
Consider `Cc1cc(C[C@H]2CCCN(Cc3cnc(C4CC4)[nH]3)C2)cc(C)n1` [Product 165], for which, in assay [2], the Emax came out at 24% and the IC50 is over 10 µM.

Values taken from patent US20210300900A1, “OGA INHIBITOR COMPOUNDS” (Janssen Pharmaceutica NV, priority 2018, published 2021).
